Assay results as given in ChEMBL document CHEMBL1201862, “PubChem BioAssay data set” (2004).
Activity calls are given as the source filed them.

Key:
[1] = target: Ras and Rab interactor 1/Tyrosine-protein kinase ABL1 (Homo sapiens, UniProt P00519+Q13671); assay type: functional;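 further: biochemical TR-FRET dose-response test measuring inhibition of binding between Rin1 and Abl proteins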
Interleukin-8 [2] = target: T1, Interleukin-8 (Homo sapiens, UniProt P10145); assay: Dose Response confirmation of uHTS small molecule hits for cystic fibrosis induced NFkb Inhibitors in a TNFa-induced IL8 counterscreen.; assay type: functional; conditions: read-out: IC50_Mean
T1 sequence (P10145 whole entry): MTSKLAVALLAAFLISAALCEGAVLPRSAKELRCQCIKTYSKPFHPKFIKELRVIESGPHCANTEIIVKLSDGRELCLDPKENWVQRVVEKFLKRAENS

Interleukin-8 [3] = target: T1, Interleukin-8; assay: Dose Response confirmation of uHTS small molecule hits for cystic fibrosis induced NFkb Inhibitors in a PAF-induced IL8 counterscreen.; assay type: functional; conditions: read-out: IC50_Mean
Streptococcus = assay: GAS UMAA2166 growth inhibition – luminescence, BacTiterGlo, counter-screen for streptokinase expression inhibitor project, dose response (AID 1915); assay type: functional, organism-based;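 further: potency for reduction of bacterial viability or growth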
[4] = target: ATP-binding cassette sub-family B member 6 (Homo sapiens, UniProt Q9NP58); assay: concentration-dependent ABCB6 porphyrin transport blockade – K562-ABCB6 cells, flow cytometry, cherry pick 1, dose response (AID 623955); assay type: functional; conditions: read-out: EC50_MICROM
[5] = non-specific 3'UTR reporter inhibition in Clone20-Shn3RL – cell-based, Renilla luciferase, cherry-picked, counter-screen for Shn3 inhibitor project, dose response (AID 624133); assay type: functional
Streptokinase A = target: T2, Streptokinase A (Streptococcus pyogenes serotype M1, UniProt P10520); assay: viability-normalized secreted streptokinase activity reduction – plasminogen activation absorbance, OD405, dose response (AID 1914); assay type: functional, Streptococcus pyogenes M1 GAS;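 further: secreted streptokinase activity via plasminogen activation per viability signal from cell pellet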
T2 sequence (P10520 whole entry): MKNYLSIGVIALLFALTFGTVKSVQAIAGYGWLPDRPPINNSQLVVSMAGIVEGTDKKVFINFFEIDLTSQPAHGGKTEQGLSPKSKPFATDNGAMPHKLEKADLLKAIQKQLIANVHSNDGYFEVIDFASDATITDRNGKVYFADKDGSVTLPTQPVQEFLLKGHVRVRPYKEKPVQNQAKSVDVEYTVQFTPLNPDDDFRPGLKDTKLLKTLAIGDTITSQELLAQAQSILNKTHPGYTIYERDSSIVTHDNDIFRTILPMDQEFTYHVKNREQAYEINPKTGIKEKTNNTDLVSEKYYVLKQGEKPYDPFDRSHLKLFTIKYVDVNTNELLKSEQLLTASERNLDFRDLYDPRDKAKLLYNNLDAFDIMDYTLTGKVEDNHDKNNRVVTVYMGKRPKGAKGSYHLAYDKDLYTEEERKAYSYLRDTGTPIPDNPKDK

[6] = reduction of Shn3 3'UTR-driven luciferase in osteoblasts – cell-based, Clone20 osteoblasts, firefly luciferase, cherry-picked, dose response (AID 624132); assay type: functional;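 further: firefly luciferase luminescence from reporter carrying the Shn3 3'UTR in osteoblasts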
Protein RecA = target: T3, Protein RecA (Mycobacterium tuberculosis, UniProt P9WHJ3); assay: Fluorescence Cell-Free Homogeneous Dose Retest to Identify Inhibitors of RecA-Intein Splicing Activity. [Related pubchem assays (depositor defined):AID2097, AID2223, AID489010, AID492950]; assay type: functional
T3 sequence (P9WHJ3 whole entry): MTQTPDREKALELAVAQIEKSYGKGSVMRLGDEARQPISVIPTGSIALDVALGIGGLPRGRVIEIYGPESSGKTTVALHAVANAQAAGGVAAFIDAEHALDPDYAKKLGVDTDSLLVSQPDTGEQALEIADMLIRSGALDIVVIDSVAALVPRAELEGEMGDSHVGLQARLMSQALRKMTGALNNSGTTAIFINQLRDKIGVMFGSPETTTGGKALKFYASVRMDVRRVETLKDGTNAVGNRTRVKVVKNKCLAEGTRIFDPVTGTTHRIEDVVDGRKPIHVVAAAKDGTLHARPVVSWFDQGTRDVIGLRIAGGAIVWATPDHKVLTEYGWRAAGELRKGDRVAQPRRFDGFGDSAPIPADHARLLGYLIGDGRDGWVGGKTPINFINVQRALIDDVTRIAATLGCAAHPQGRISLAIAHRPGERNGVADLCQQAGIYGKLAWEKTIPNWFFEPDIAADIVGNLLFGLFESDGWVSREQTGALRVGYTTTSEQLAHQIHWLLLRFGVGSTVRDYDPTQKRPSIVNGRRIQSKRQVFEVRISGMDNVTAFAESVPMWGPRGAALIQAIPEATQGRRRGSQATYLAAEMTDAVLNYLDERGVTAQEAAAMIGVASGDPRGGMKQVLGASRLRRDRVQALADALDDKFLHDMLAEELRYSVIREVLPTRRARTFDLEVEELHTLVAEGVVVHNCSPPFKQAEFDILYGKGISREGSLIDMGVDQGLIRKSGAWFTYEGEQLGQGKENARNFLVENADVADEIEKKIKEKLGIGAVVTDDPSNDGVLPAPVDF

[7] = target: Heat shock protein HSP 90-alpha (Homo sapiens, UniProt P07900); assay type: functional, organism-based
[8] = loss of viability in HepG2 cells – cell-based, CellTiter-Glo, cherry-picked, cytotoxicity control for Shn3 inhibitor project, dose response (AID 624134); assay type: functional
INS1 = assay: INS-1E survival protection against cytokine death – cell-based, luminescence, retest, dose response (AID 449756); assay type: functional; conditions: Rattus norvegicus;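 further: cell death triggered by IL-1 beta plus TNF-alpha plus IFN-gamma mixture; protective hits raise ATP signal compared with cytokine alone wells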
[9] = target: T4, Replicative DNA helicase DnaB (Mycobacterium tuberculosis, UniProt P9WMR3); assay: DnaB intein splicing inhibitors, dose response, biochemical, cell-free fluorescence (AID 449749); assay type: functional
T4 sequence (P9WMR3 whole entry): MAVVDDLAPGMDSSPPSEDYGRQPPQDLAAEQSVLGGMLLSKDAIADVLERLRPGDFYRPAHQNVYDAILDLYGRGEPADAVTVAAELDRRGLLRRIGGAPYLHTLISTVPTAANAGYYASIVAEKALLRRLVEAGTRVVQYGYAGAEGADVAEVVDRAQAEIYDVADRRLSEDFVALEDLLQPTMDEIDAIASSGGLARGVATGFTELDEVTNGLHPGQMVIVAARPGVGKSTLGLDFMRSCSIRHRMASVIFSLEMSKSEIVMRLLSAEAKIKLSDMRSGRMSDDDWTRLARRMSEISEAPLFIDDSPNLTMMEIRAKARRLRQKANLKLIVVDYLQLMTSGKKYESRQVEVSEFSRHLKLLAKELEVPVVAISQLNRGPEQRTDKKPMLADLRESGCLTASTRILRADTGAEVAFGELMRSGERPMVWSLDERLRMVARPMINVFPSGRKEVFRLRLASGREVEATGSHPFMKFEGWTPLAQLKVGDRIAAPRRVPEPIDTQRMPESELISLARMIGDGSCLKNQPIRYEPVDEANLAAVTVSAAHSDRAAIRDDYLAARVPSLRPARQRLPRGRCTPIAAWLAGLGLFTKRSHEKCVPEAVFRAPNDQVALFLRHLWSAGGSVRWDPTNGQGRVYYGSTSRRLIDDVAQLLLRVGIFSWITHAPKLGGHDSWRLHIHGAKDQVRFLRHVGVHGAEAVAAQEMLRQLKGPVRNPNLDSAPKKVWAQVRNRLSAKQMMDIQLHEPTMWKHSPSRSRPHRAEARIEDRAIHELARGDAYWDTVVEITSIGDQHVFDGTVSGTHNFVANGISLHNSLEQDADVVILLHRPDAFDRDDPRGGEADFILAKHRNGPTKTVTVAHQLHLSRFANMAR

CHO = CHO cell viability loss, potency – luminescence, cytotoxicity control for TLR9-MyD88 binding inhibitor project, dose response (AID 588339); assay type: functional, cell-based, hamster; conditions: Cricetulus griseus;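 further: CHO cells stably coexpressing TLR9 and MyD88 fusions from primary screen; compound exposure lasted 48 hours before viability readout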
Beta Lactamase = Beta Lactamase (Pseudomonas aeruginosa, UniProt Q932Y6); assay: BLA reporter interference, concentration series – BLA reporter cells, FRET fluorescence, artefact control for TLR9-MyD88 binding inhibitor project, dose response (AID 588341); assay type: cell-based;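 further: cell based assay in CHO-K1 cells stably expressing beta-lactamase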
[10] = tested on: Streptococcus sp. 'group A'; assay: Streptococcus pyogenes SK(-)GAS viability under kanamycin – luminescence, BacTiterGlo, confirmation, counter-screen for streptokinase expression inhibitor project, dose response (AID 1900); assay type: functional, organism-based
[11] = target: T5, Polyadenylate-binding protein 1 (Homo sapiens, UniProt P11940); assay: MLLE domain peptide-binding blockers, IC50 – biochemical, fluorescence polarization, FITC-PAM2 peptide, dose response (AID 602259); assay type: functional; conditions: read-out: IC50_Mean
[12] = target: T5, Polyadenylate-binding protein 1; assay: MLLE binding blockers, Cy5 peptide tracer – biochemical, fluorescence polarization, Cy5-PAM2 peptide, secondary, miRNA deadenylation inhibitor project, dose response (AID 602260); assay type: functional; conditions: read-out: IC50_Mean
[13] = target: DNA (cytosine-5)-methyltransferase 1 (Homo sapiens, UniProt P26358); assay: inhibition of DNA methylation by DNMT1 – biochemical, fluorescent molecular beacon, confirmation (AID 602386); assay type: functional
Sequence of DNA (cytosine-5)-methyltransferase 1 (P26358 whole entry): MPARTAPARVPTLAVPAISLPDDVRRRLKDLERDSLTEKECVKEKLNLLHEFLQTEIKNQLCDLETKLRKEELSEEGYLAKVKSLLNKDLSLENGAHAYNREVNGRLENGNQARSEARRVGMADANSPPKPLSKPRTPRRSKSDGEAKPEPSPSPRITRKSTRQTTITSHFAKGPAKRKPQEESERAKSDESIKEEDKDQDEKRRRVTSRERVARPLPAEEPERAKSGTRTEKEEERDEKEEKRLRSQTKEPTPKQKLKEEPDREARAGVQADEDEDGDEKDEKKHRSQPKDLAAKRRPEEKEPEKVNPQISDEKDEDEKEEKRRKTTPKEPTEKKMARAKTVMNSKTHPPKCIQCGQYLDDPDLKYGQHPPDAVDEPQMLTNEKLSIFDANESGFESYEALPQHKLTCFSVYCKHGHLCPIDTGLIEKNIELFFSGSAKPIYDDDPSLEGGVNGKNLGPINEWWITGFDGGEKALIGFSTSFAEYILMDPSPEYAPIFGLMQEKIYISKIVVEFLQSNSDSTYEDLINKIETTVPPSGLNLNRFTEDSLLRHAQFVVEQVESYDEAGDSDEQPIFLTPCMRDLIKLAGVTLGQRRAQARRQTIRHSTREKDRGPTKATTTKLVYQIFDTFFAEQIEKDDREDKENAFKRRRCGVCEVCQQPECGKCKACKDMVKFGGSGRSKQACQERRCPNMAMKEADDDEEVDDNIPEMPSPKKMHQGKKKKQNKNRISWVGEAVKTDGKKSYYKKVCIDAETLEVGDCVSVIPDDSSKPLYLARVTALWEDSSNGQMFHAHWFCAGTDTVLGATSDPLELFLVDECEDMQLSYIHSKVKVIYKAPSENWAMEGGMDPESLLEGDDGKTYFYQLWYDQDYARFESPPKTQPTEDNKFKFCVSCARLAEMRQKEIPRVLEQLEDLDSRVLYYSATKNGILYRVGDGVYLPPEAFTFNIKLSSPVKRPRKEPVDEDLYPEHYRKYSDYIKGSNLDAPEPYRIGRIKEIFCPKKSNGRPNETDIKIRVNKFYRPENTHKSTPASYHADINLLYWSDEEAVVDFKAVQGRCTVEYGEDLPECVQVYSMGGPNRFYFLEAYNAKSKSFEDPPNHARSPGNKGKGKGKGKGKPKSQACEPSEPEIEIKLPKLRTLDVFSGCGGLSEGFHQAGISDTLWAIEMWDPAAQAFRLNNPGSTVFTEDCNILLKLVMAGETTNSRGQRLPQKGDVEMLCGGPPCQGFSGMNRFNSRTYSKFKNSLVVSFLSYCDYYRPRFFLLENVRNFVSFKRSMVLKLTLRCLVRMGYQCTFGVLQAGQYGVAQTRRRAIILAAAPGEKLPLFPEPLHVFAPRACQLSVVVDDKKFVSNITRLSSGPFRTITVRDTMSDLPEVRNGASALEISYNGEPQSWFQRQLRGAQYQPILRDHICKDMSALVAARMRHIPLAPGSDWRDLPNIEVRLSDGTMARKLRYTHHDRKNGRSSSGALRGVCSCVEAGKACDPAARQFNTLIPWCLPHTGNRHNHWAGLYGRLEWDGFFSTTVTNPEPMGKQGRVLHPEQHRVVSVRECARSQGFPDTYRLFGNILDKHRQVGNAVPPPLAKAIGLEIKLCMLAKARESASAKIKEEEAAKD

T5 sequence (P11940 whole entry, the tested form may be a part): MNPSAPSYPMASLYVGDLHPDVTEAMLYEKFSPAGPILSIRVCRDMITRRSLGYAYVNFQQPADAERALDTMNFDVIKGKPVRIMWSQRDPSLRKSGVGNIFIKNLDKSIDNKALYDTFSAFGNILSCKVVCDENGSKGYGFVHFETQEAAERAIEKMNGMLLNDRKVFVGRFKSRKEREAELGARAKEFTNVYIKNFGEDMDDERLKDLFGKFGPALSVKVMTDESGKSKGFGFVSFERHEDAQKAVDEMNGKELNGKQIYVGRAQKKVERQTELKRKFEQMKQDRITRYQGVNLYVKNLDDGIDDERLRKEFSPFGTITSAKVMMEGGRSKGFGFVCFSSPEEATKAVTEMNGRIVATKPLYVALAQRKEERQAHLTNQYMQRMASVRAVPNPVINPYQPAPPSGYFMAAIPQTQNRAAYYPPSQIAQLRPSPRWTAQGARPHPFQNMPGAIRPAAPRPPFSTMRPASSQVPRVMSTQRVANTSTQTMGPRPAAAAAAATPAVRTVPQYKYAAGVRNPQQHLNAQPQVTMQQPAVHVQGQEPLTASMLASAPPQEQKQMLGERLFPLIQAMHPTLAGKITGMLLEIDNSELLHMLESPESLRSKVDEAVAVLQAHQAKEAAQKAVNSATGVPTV
Sequence of ATP-binding cassette sub-family B member 6 (Q9NP58 whole entry): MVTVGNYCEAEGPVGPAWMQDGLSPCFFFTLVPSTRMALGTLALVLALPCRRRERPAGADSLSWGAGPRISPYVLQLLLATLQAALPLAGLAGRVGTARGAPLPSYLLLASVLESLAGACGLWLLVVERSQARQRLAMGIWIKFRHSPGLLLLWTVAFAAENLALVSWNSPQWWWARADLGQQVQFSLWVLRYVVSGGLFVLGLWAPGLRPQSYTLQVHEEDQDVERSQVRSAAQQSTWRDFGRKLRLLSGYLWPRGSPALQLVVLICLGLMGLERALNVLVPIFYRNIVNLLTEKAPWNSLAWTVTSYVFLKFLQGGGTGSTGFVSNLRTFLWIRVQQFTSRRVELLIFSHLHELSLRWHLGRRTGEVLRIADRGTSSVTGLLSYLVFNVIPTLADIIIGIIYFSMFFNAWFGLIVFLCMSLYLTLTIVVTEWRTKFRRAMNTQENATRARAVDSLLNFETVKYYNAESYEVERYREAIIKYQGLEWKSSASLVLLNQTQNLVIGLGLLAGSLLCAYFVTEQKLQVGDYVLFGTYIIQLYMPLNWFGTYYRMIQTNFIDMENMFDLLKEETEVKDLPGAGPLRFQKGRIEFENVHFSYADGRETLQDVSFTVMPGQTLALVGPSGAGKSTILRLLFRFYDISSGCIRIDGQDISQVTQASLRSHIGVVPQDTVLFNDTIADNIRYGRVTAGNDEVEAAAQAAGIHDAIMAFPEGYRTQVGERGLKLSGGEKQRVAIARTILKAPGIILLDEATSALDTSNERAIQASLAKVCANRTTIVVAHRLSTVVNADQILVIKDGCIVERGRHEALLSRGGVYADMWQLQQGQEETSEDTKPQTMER
Sequence of Ras and Rab interactor 1/Tyrosine-protein kinase ABL1 (P00519 whole entry): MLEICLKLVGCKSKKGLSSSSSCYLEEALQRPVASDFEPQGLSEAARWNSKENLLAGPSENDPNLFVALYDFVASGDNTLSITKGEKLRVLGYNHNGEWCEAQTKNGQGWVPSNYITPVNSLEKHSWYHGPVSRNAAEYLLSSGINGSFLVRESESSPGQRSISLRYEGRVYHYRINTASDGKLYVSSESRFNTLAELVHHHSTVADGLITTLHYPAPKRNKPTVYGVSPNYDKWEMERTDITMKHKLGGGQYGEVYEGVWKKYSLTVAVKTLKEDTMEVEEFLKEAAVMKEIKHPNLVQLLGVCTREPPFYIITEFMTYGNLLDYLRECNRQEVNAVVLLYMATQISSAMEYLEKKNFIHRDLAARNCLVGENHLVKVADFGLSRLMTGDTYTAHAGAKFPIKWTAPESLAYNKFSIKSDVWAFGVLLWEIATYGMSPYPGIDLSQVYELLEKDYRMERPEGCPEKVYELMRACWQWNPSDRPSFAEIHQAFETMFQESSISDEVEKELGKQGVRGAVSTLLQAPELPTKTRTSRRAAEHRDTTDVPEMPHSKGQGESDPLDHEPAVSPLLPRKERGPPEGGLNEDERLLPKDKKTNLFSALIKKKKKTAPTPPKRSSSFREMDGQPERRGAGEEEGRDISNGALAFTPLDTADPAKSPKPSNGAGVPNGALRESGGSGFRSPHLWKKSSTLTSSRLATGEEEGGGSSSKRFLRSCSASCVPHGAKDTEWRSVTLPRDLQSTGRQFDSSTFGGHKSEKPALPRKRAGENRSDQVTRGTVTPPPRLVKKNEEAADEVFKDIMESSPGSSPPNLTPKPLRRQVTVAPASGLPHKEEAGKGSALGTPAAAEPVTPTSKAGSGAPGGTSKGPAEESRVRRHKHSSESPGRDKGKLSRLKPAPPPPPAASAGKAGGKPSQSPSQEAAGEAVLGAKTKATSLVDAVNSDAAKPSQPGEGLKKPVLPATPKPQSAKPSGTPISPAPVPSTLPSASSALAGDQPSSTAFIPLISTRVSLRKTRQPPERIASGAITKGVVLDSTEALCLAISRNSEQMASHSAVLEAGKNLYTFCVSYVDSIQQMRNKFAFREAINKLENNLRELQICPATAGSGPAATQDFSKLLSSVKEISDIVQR
Sequence of Ras and Rab interactor 1/Tyrosine-protein kinase ABL1 (Q13671 whole entry): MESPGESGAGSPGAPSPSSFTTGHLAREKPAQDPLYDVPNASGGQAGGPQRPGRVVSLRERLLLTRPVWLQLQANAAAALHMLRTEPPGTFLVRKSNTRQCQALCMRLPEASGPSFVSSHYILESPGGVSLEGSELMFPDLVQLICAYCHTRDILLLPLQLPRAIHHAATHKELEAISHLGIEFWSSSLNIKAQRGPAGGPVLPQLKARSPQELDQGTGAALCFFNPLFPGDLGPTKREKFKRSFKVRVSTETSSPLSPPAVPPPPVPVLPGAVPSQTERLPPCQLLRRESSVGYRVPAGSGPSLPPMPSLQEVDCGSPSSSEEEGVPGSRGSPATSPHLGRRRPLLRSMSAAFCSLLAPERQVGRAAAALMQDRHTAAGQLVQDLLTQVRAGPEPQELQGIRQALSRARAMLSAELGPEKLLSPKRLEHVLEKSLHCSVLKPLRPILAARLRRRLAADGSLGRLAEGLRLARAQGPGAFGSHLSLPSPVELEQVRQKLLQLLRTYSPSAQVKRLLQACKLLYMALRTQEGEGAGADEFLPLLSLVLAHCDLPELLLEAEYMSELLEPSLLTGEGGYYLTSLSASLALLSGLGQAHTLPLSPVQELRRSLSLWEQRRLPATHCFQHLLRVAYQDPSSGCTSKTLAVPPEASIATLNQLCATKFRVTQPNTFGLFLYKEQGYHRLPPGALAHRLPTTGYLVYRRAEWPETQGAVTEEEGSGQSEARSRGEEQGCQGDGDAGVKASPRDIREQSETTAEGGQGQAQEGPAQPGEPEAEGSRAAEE

O=C(CC1SCCNC1=O)Nc1cc(Cl)cc(Cl)c1 (centres undefined)
IC50 [1]: 26.4 µM (inactive)

CC1=C(C(=O)OCc2ccc3c(c2)OCO3)C(c2ccc(O)c([N+](=O)[O-])c2)NC(=O)N1 (centres undefined)
IC50 (Interleukin-8 [2]): 39.8 µM (inactive)
IC50 (Interleukin-8 [3]): 63.7 µM (inactive)

COC(=O)c1ccc(NC(=O)c2nc(S(=O)(=O)Cc3cccc(C)c3)ncc2Cl)cc1
EC50 (Streptococcus): 3.07 µM (active)
EC50 [4]: 44.2 µM (active)
AC50 [5]: 5.82 µM (active)
EC50 (Streptokinase A): > 150 µM (not active)
AC50 [6]: 1.35 µM (active)
EC50 (Protein RecA): 0.228 µM (active)
AC50 [7]: 1.26 µM (active)
AC50 [8]: 33.5 µM (active)
AC50 (INS1): 7.28 µM (active)
AC50 [9]: 0.389 µM (active)
IC50 (CHO): 2.53 µM (active)
IC50 (Beta Lactamase): 10.7 µM (inactive)
EC50 [10]: 0.941 µM (active)

O=C1c2sccc2-c2cccc3cccc1c23
IC50 [11]: 25.5 µM (inactive)
IC50 [12]: > 66 µM (inactive)
IC50 [13]: 1.02 µM (active)
